From ChEMBL document CHEMBL1201862, “PubChem BioAssay data set” (2004)
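Growth conditions: 96-well plates. Treatment: test compound, 48 hours, 5 concentrations. Analysis: linear interpolation between bracketing concentrations; unreached endpoints set to highest concentration. GI50 = concentration required for 50% inhibition of growth.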 Calls of active or inactive are those of the source. Cut-off read from the data, not from the text of the source: active = GI50 up to about 1.1 µM and inactive = higher.

Experiments:
Experiment in all cases: NCI-60 cell line screen, 48 h
A498 = system: A498
A549 = system: A549
ACHN = system: ACHN
HT-29 = system: HT-29
K562 = system: K562
M14 = system: M14
Malme-3M = system: Malme-3M
NCI-H460 = system: NCI-H460
NCI-H522 = system: NCI-H522
OVCAR-5 = system: OVCAR-5
OVCAR-8 = system: OVCAR-8
SF-268 = system: SF-268
SF-295 = system: SF-295
SK-MEL-28 = system: SK-MEL-28
SK-MEL-2 = system: SK-MEL-2
SNB-19 = system: SNB-19
SNB-75 = system: SNB-75
TK-10 = system: TK-10
UACC-62 = system: UACC-62
NCI-H226 = system: NCI-H226

Measured: GI50

CC(OC(C)(C)C)[C@H](NC(=O)OCC(Cl)(Cl)Cl)C(=O)O (some centres undefined)
inactive: A498 > 100 µM | A549 > 100 µM | ACHN > 100 µM | HT-29 > 100 µM | K562 > 100 µM | M14 > 100 µM | Malme-3M > 100 µM | NCI-H460 > 100 µM | NCI-H522 > 100 µM | OVCAR-5 > 100 µM | OVCAR-8 > 100 µM | SF-268 > 100 µM | SF-295 > 100 µM | SK-MEL-28 > 100 µM | SK-MEL-2 > 100 µM | SNB-19 > 100 µM | SNB-75 > 100 µM | TK-10 > 100 µM | UACC-62 > 100 µM

CCOC(=O)C(Cc1ccccc1)NC(=O)OC(C)(C)C (centres undefined)
inactive: A498 > 100 µM | A549 > 100 µM | ACHN > 100 µM | HT-29 > 100 µM | K562 > 100 µM | M14 > 100 µM | Malme-3M > 100 µM | NCI-H460 > 100 µM | NCI-H522 > 10 µM | OVCAR-5 > 100 µM | OVCAR-8 > 100 µM | SF-268 > 100 µM | SF-295 > 100 µM | SK-MEL-28 > 100 µM | SK-MEL-2 > 100 µM | SNB-19 > 100 µM | SNB-75 > 100 µM | TK-10 > 100 µM | UACC-62 > 100 µM

CCOC(=O)c1ccc(N(CCOS(=O)(=O)c2ccc(C)cc2)CCOS(=O)(=O)c2ccc(C)cc2)cc1
inactive: A498 > 100 µM | A549 8.91 µM | ACHN 6.78 µM | HT-29 > 100 µM | K562 > 100 µM | M14 > 100 µM | Malme-3M > 100 µM | NCI-H460 4.66 µM | NCI-H522 > 100 µM | OVCAR-5 > 100 µM | OVCAR-8 > 100 µM | SF-268 > 100 µM | SF-295 > 100 µM | SK-MEL-2 19.8 µM | SNB-19 > 100 µM | TK-10 > 100 µM | UACC-62 > 100 µM

CCOC(=O)CC(=O)CSc1c(-c2ccccc2)c(=O)n(-c2ccccc2)c(=S)n1-c1ccccc1
inactive: A498 > 100 µM | A549 > 100 µM | ACHN > 100 µM | HT-29 > 100 µM | K562 > 100 µM | M14 > 100 µM | Malme-3M > 100 µM | NCI-H226 > 100 µM | NCI-H460 > 100 µM | NCI-H522 69.7 µM | OVCAR-5 > 100 µM | OVCAR-8 > 100 µM | SF-268 > 100 µM | SF-295 > 100 µM | SK-MEL-28 > 100 µM | SNB-19 > 100 µM | SNB-75 > 100 µM | TK-10 > 100 µM | UACC-62 > 100 µM
